The test system of data set [1] is phenylparaquinone (P.P.Q.) painful syndrome in a mouse. Nature of the data set: Analgesic and anti-inflammatory activity, phenylparaquinone (P.P.Q.) painful syndrome. The conditions noted are these: for Analgesic and anti-inflammatory activity, percentage activity a(X): 50 mg/kg digestively, crises between 10 and 15 minutes; for a(X) / a(R), analgesic and anti-inflammatory activity: X 50 mg/kg, R (Galfenine) 25 mg/kg. Type of data set: in vivo. The method, then:
The intraperitoneal injection of phenylparaquinone (P.P.Q.) in a mouse causes the appearance of a painful syndrome appearing within 5 minutes of the injection and disappearing after about 30 minutes (SIEGMUND E. A., CADMUS A., LU G., J. Pharmacol. Exp. Therap. 1957, 119, 453). This painful syndrome manifests itself in the animal by a series of characteristic crises, more or less close together and fleeting, during which we can note a twisting or stretching of the body, a hollowing of the sides and a stretching of the hind legs.
It is therefore possible to note the number of crises in a given interval of time.
The preventive administration of analgesic or anti-inflammatory substances prevents the appearance of crises or reduces the frequency thereof.
The reference substance (R) used in the tests was the ester of N-(7-chloro-4 quinolyl) anthranilic acid and 2,3-dihydroxy n.propanol (known under the trademark Galfenine).
It was administered orally with a dose of 25 mg/kg.
The compounds of formula I (X) were administered digestively with a dose of 50 mg/kg.
The interval of time (t) which was chosen to evaluate the analgesic activity was between 10 and 15 minutes which is the period of maximum frequency of the crises. This activity was expressed in the following way:
n: number of crises observed in the control mice;
n': number of crises observed in mice previously treated with the reference substance (R);
n": number of crises observed in mice having received the substance (X).
The percentage activity of R is equal to [formula]
The percentage activity of X is equal to [formula]
The activity of X in relation to that of R is estimated by the ratio [formula]
For example: a compound X for which [formula] is 0.5 has an activity equal to half that of the reference product.

The subject of a further data set is mouse. As to the kind of experiment: Acute toxicity, oral, mouse (LD 50, Miller and Tainter). The class given is in vivo. The note with it: death rate checked for seven days, 10080 min. The procedure: (§1) The acute toxicity of the compounds of formula (I) were evaluated orally (esophagean probe) on a mouse deprived of food 18 hours before the beginning of the test. The products were placed in suspension in a solution of dilute carboxymethyl cellulose. Calculation of the 50 lethal dose (LD 50) was effected according to the method of Miller and Tainter (Miller L. C., Tainter M. L., Proc. Soc. Exptl. Biol. Med. 1944, 57, 261-264).
(§2) The death rate was checked for seven days following the treatment.
(§3) Table III gives the 50% lethal doses (LD 50) in milligrammes per kilogramme body weight.

Data set [2] concerns human blood-plaques (aggregation with collagene). As to the kind of experiment: Inhibition of blood-plaque aggregation induced by collagene. The conditions noted are these: for Ratio of a (X) to a (R), COLLAGENE (head drawn): X 2×10^-5 g/ml, R 2×10^-4 g/ml; for inhibition at 20 µg/mL: Homo sapiens, read-out: Inhibitory activity of the blood-plaque aggregation, COLLAGENE, a (X). The class given is cell-based. From the text: (§4) The blood plaques used for these studies were human blood-plaques introduced into the test in the form of blood-plaque rich plasmas (B.P.R.P.).
(§5) These latter were obtained as water-repellent material by slow centrifugation from human blood samples.
(§6) The study of blood-plaque aggregation was made by means of an aggregate-meter with continuous agitation and graphic recording according to the conventional method. (PROST R. S., SOUVERAIN C. H., DOUMENC J., Etude de l'agregation plaquettaire a l'aide de l'agregametre de MUSTARD-Coagulation, 1971, 4, 2, 145-151).
(§7) The agents employed for inducing aggregation were diphosphoric adenosine acid (D.P.A.), 1-(3',4'-di-hydroxyphenyl)-2-methylamino ethanol (adrenaline) and collagene. All these reactants were prepared from mother solutions diluted in a Michaelis' buffer. Their concentration in the test may vary according to the affinity of the blood-plaques.
(§8) An optimum concentration is thus sought by successive tests on the same B.P.R.P.
(§9) The inhibitory activity on the aggregation was evaluated by addition of the product under study to the B.P.R.P. before introduction of the aggregating agent.
(§10) The concentrations of compounds of formula I (X) in the B.P.R.P. are: C (X)=2.5×10^-5 g/ml for aggregation with D.P.A. and adrenaline, and C (X)=2×10^-5 g/ml for collagene.
(§11) The reference product (R) is 2,6-bis (diethanolamino)-4,8-dipiperidinopyrimido[5,4-d]pyramidine (known under the trademark "Dipyridamole") used in the concentration C (R)=5×10^-4 g/ml for aggregation with D.P.A. and adrenaline and C (R)=2×10^-4 g/ml for aggregation with collagene.
(§12) The following table IV indicates the activity of some compounds of formula I: a (X) the activity of the reference product: a (R) and the different values of the ratio: [formula]

Data set [3] deals with human blood-plaques (aggregation with adrenaline). As to the kind of experiment: Inhibition of blood-plaque aggregation induced by adrenaline. The conditions noted are these: for Ratio of a (X) to a (R), ADRENALINE (head drawn): X 2.5×10^-5 g/ml, R 5×10^-4 g/ml; for inhibition at 25 µg/mL: Homo sapiens, read-out: Inhibitory activity of the blood-plaque aggregation, ADRENALINE, a (X). Type of data set: cell-based.
Description: as §4, §5, §6, §7, §8, §9, §10, §11, §12

Another data set relates to rat's isolated duodenum. Nature of the data set: Spasmolytic activity on isolated duodenum contracted by barium chloride (Magnus). The note with it: for ED 50 (R) / ED 50 (X): relative to papaverine hydrochloride; for IC50: Rattus norvegicus, barium chloride contraction, Tyrode, 38° C., read-out: Spasmolytic activity ED 50 (X). The procedure: The spasmolytic activity was studied on a rat's isolated duodenum maintained in a survival medium of an aerated Tyrode solution heated to 38° C. according to the technique of Magnus (Magnus R.-Archivs ges. Physiol., 1905, 180, 1-71).
The contracting agent used was barium chloride, the reference antogonist agent being papaverine hydrochloride (R). The average activity of the compounds of formula I (X) in comparison with that of the reference agent was expressed by calculating the ratio of the 50 efficient doses (ED 50) determined graphically on logarithmic paper: [formula]
For example: a substance having a relative activity expressed by the FIG. 2 presents an activity equal to twice that of papaverine hydrochloride.

For data set [4], the system named is isolated heart of a gumea-pig. Nature of the data set: Vaso-dilatatory activity, coronary flow of isolated perfused heart. The conditions noted are these: for activation at 10 µg/mL: 1×10^-5 g/ml, coronary flow at climax of activity, Locke, 37° C., read-out: Percentage flow increase P (X); for P (X) / P (R): relative to Dipyridamole, both 1×10^-5 g/ml. The method, then: The coronary flow is recorded, by means of an electronic device fitted with a Fleish totaliser, before and after addition of the substance X under study (concentration: 1×10^-5 g/ml), the reference product (R) being 2,6-bis (diethanolamino) 4,8-dipiperidinopyrimido[5,4-d]pyrimidine (known under the trademark "Dipyridamole") used at a concentration of 1×10^-5 g/ml.
The percentage flow increase P was calculated at the climax of the activity of X or R.

In data set [5] the test system is human blood-plaques (aggregation with D.P.A.). Nature of the data set: Inhibition of blood-plaque aggregation induced by D.P.A. The note with it: for Ratio of a (X) to a (R), D.P.A. (head drawn): X 2.5×10^-5 g/ml, R 5×10^-4 g/ml; for inhibition at 25 µg/mL: Homo sapiens, read-out: Inhibitory activity of the blood-plaque aggregation, D.P.A., a (X). Type of data set: cell-based.
Description: as §4, §5, §6, §7, §8, §9, §10, §11, §12

Data set [6] in a line: Acute toxicity, oral, mouse (LD 50, Miller and Tainter). Type of data set: in vivo. The note with it: in vivo, po, death rate checked for seven days, read-out: 50% lethal dose (LD 50) (converted). The method, then: as §1, §2, §3
The next data set relates to human blood-plaques. Nature of the data set: Blood-plaque aggregation inhibition (all inducers, overall statement). The class given is cell-based. The note with it: compared with reference product, taking the ratio into account.
Description: as §4, §5, §6, §7, §8, §9
The concentrations of compounds of formula I (X) in the B.P.R.P. are: C (X)=2.5×10^-5 g/ml for aggregation with D.P.A. and adrenaline, and C (X)=2×10^-5 g/ml for collagene. […]

The structures appear in SMILES notation. Values after ≈ are worked out from the molar mass of the structure shown. Where a name gives a salt, the structure may show the parent alone.

As to `O=C(CCCN1CCOCC1)c1cc2ccccc2s1` [Compound 2, 1-(benzothien-2'-yl)-4-N-morpholino butanone hydrochloride], in data set [1] (hydrochloride), the “Analgesic and anti-inflammatory activity, percentage activity a(X)” value was 38%; the “a(X) / a(R), analgesic and anti-inflammatory activity” value is given as 5 × 10^-1. Besides, the “50% lethal dose (LD 50)” value in the data set with mouse (hydrochloride) was 1 500 mg/kg/p.o. Further, the “Inhibitory activity of the blood-plaque aggregation, COLLAGENE, a (X)” value in [2] (C (X)=2×10^-5 g/ml, hydrochloride) is on record as 12%. The “Ratio of a (X) to a (R), COLLAGENE (head drawn)” value (“Ratio … COLLAGENE (head drawn)” below) in data set [2] (hydrochloride) was 3.3×10^-1. Further, the “Inhibitory activity of the blood-plaque aggregation, ADRENALINE, a (X)” value in [3] (C (X)=2.5×10^-5 g/ml, hydrochloride) was found to be 15%. For the same molecule, the “Ratio of a (X) to a (R), ADRENALINE (head drawn)” value (from here on “Ratio … ADRENALINE (head drawn)”) in [3] (hydrochloride) is 1.65×10^-1.
Take `CCN(CC)CCCC(=O)c1csc2ccccc12` [Compound 10]: in the data set on mouse, the “50% lethal dose (LD 50)” value was 1 100 mg/kg/p.o. Also, the “ED 50 (R) / ED 50 (X)” value with rat's isolated duodenum is 1.05. In data set [4], the activation at 10 µg/mL was 60% and the “P (X) / P (R)” value is 1.4.
Regarding `CCCN(CCC)CCCC(=O)c1csc2ccccc12` [Compound 11], the “Ratio of a (X) to a (R), D.P.A. (head drawn)” value in data set [5] is on record as 1.8×10^-1. Further, in [5] (C (X)=2.5×10^-5 g/ml), the inhibition at 25 µg/mL stood at 10%. Moreover, in [1], the “Analgesic and anti-inflammatory activity, percentage activity a(X)” value is reported as 48%; the “a(X) / a(R), analgesic and anti-inflammatory activity” value is reported as 6.5 × 10^-1. Also, the LD50 at 168 h in data set [6] was 1100 mg/kg. In addition, in data set [2] (C (X)=2×10^-5 g/ml), the inhibition at 20 µg/mL was determined as 12%. Also, the “Ratio … COLLAGENE (head drawn)” value in data set [2] is given as 3.3×10^-1. In addition, the inhibition at 25 µg/mL in data set [3] (C (X)=2.5×10^-5 g/ml) amounted to 51%. Besides, the “Ratio … ADRENALINE (head drawn)” value in [3] was 5.8×10^-1. In addition, in the data set on rat's isolated duodenum, the IC50 was 1.05 mg/L (≈ 3.46 µM) and the “ED 50 (R) / ED 50 (X)” value is reported as 6.2. In data set [4], the activation at 10 µg/mL worked out at 41% and the “P (X) / P (R)” value is 7.75 × 10^-1.
In the case of `CC(C)N(CCCC(=O)c1csc2ccccc12)C(C)C` [Compound 12], the inhibition at 25 µg/mL in data set [5] (C (X)=2.5×10^-5 g/ml) came to 29%. Moreover, in data set [1], the “Analgesic and anti-inflammatory activity, percentage activity a(X)” value stood at 68%; the “a(X) / a(R), analgesic and anti-inflammatory activity” value is reported as 1.5. Further, in data set [6], the LD50 at 168 h was 500 mg/kg. Further, the inhibition at 20 µg/mL in data set [2] (C (X)=2×10^-5 g/ml) stood at 12%. In addition, the “Ratio … COLLAGENE (head drawn)” value in [2] is listed as 2.3×10^-1. Besides, the inhibition at 25 µg/mL in [3] (C (X)=2.5×10^-5 g/ml) came to 80%. Further, the “Ratio … ADRENALINE (head drawn)” value in data set [3] is recorded as 9.1×10^-1. In addition, in the data set with rat's isolated duodenum, the IC50 worked out at 1.35 mg/L (≈ 4.45 µM) and the “ED 50 (R) / ED 50 (X)” value is recorded as 4.8. For the same molecule, in data set [4], the activation at 10 µg/mL is 33% and the “P (X) / P (R)” value was 6.25 × 10^-1.
On to `O=C(CCCN1CCCCCC1)c1csc2ccccc12` [Compound 16], for which the “Inhibitory activity of the blood-plaque aggregation, D.P.A., a (X)” value in data set [5] (C (X)=2.5×10^-5 g/ml) amounted to 47%. For the same molecule, in data set [5], the “Ratio of a (X) to a (R), D.P.A. (head drawn)” value is listed as 5.5×10^-1. Moreover, in [1], the “Analgesic and anti-inflammatory activity, percentage activity a(X)” value is recorded as 44%; the “a(X) / a(R), analgesic and anti-inflammatory activity” value is listed as 5.9 × 10^-1. In addition, the “50% lethal dose (LD 50)” value in the data set on mouse is 1 200 mg/kg/p.o. Also, in data set [2] (C (X)=2×10^-5 g/ml), the inhibition at 20 µg/mL was found to be 92%. Besides, the “Ratio … COLLAGENE (head drawn)” value in data set [2] is 2.5. Moreover, in the data set with rat's isolated duodenum, the “ED 50 (R) / ED 50 (X)” value is 2.7.
In the case of `O=C(CCCN1CCOCC1)c1csc2ccccc12` [Compound 17], in data set [1], the “Analgesic and anti-inflammatory activity, percentage activity a(X)” value is recorded as 55%; the “a(X) / a(R), analgesic and anti-inflammatory activity” value is recorded as 1.2. Moreover, the “Inhibitory activity on the blood-plaque aggregation (in words)” value with human blood-plaques is “substantially superior”. In data set [6], the LD50 at 168 h was 1000 mg/kg. Moreover, in the data set on rat's isolated duodenum, the IC50 worked out at 2.15 mg/L (≈ 7.43 µM) and the “ED 50 (R) / ED 50 (X)” value was determined as 3.4.

The record behind these values is US4186136A, “Novel benzothienyl amino (propyl and butyl) ketones, a method of preparation thereof and their application to therapeutics” (priority 1975, dated 1980).
